Results as given in patent publication US20250302846A1, “ANTIBIOTIC COMPOSITION AND METHODS OF USE THEREOF” (THE REGENTS OF THE UNIVERSITY OF COLORADO A BODY CORPORATE, priority 2022, published 2025).
In brackets after ≈: the same amount, converted by molar mass.

Assays:
[1] = tested on: one-day-old staphylococcal biofilms; experiment: One-day-old staphylococcal biofilms; assay type: cell-based; settings: biofilms established 24 hours in TSB, treated 18 hours
Procedure: For the indicated strain, biofilms established in TSB for 24 hours were treated for 18 hours with DMSO, rifampin (1x MIC95=0.05 μg/mL), vancomycin (1x MIC95=1 μg/mL), or D66. The remaining biofilm (A-D) matrix was quantified with crystal violet or E-F) volume was quantified after Syto9 and PI staining as in FIG. 5. G, H) Syto9 and PI-stained Z-stacked images were converted to volumes. Volume data were compiled and reconstructed in Nikon Elements Advanced Research software using a color-coded volume display where blue is the bottom, lowest Z-stack and magenta is the highest point for each sample. Scale bar is in um.
Asterisks indicate P≤0.05 as determined by one-way ANOVA compared to DMSO. A-D are means and SEMs from three biological replicates performed in triplicate. E-F are means and SDs of one of two replicates derived from a minimum of four fields of view. G-H are representative images from this same replicate as in E-F.

[2] = tested on: Bacillus subtilis; experiment: Growth inhibition in broth (MIC95); assay type: cell-based
Procedure: FIG. 8A-B. D66 inhibits the growth of Gram-positive bacteria in broth. A) Dose response curves monitoring staphylococcal and B. subtills growth in the presence of D66 from an OD600 of 0.01, normalized to growth in 2% DMSO after 18 hours. Mean and SEM of at least three biological replicates performed with technical triplicates. B) Table of D66 concentrations that inhibit growth. For comparison, S. Typhimurium is included.
A) D66 quenches the fluorescent dye DiSC3 (5) in a dose-dependent manner. Data were normalized to DMSO at time 0. Relative fluorescent units (RFU). Mean and SEM of three biological replicates performed with technical triplicates. B, C) Mid-log phase S. aureus (FDA209) in LB were treated at time 0 with DMSO, gramicidin [2 μg/mL], or D66 (1x MIC95=130 μM). B) Fold change in RFU. Data are normalized to DMSO at time 0. C) Data normalized to account for the quenching effect of D66 on DiSC3 (5) observed in A. Mean and SEM of three biological replicates performed with technical triplicates. D) Bacillus subtilis expressing mNeonGreen-FtsZ at stationary phase in LB were placed on agar pads containing D66 at the indicated concentration (1x MIC95=89 μM). Confocal microscope images were taken after 15 minutes to ascertain whether D66 disrupted the septal localization of FtsZ.

[3] = tested on: S. Typhimurium strain SL1344; assay type: in vivo
Procedure: FIG. 5A-C. […] Mice were euthanized 48 hours after infection. […] Significance was determined by Mann-Whitney.
Female C57Bl/6 7-8-week-old mice were IP inoculated with S. Typhimurium strain SL1344. Six mice per cohort were IP-treated with 100 μL of vehicle (50% DMSO), 50 mg/kg of chloramphenicol, or 50 mg/kg of D66 at 10 minutes and 24 hours post-infection. Mice were euthanized at 48 hours by CO2 asphyxiation, followed by cervical dislocation. Spleen and liver were collected, homogenized in 1 mL PBS and serially diluted for plating to enumerate CFU. The experiment was performed twice independently with 7×10^3 CFU, 3×10^4 CFU respectively, as determined by plating. A ROUT test for outliers and a Mann-Whitney test for significance were performed in GraphPad Prism.

[4] = tested on: S. Typhimurium (SL1344 with sifB::gfp) in RAW 264.7 macrophages; experiment: SAFIRE assay: bacterial accumulation (GFP) in macrophages; assay type: cell-based; settings: Salmonella enterica, RAW264.7, 16 h, read-out: IC50 in SAFIRE
Procedure: FIG. 1A-D. D66 is a small molecule that prevents S. Typhimurium replication and/or survival in macrophages. A). Structure of D66. B) RAW264.7 macrophage-like cells were infected with S. Typhimurium harboring a chromosomal sifB: : gfp reporter, treated with DMSO or D66 at two hours after infection, and monitored for bacterial accumulation (GFP+Macrophage Area) over 16 hours using the SAFIRE (Screen for Anti-infectives using Fluorescence microscopy of Intracellular Enterobacteriaceae) assay. The IC50 value is indicated. Mean and SD of biological duplicates with technical duplicates across 9 dilutions of D66. C, D) CFU assays were performed with RAW264.7 or HeLa cells infected with S. Typhimurium SL1344 or 14028 for two hours and treated for 16 hours with DMSO or 1.5-fold dilutions of D66, prior to lysis and plating for CFU. Symbols on the Y-axes are the CFU value from DMSO-treated samples. […]
SAFIRE and CFU assays: SAFIRE assays were performed with RAW 264.7 (TIB-71) macrophages seeded at […] in 100 μL of complete DMEM in 96-well tissue culture plates (Greiner, 655180) and incubated at 37° C. with 5% CO2. […] After 16 hours of treatment, samples were imaged on a spinning disk confocal microscope, and a MATLAB algorithm calculated bacterial accumulation (GFP fluorescence) within macrophages, as defined by DAPI (DNA) and MitoTracker Red, a vital dye for mitochondrial voltage. […]

[5] = tested on: S. aureus FDA209; experiment: Growth curves and kill curves of mid-log phase S. aureus; assay type: cell-based
Procedure: FIG. 9A-B. D66 is bactericidal to mid-log phase S. aureus. A) Growth curves and B) kill-curves. Mid-log phase cultures of S. aureus FDA209 were treated at time 0 with either DMSO or the indicated concentration of D66 (1x MIC95=130 μM). Cultures were monitored for OD600 and plated for enumeration of colony forming units (CFU). Data are presented as fold change. Mean and SEM of three biological replicates performed with technical triplicates.

O=C(Nc1cc(Cl)cc(Cl)c1)N1CCCN(Cc2ccccc2)CC1 [D66]
number of live cells in one-day-old biofilms [1]: decreases the number of live cells | MIC [2]: 89 µM (≈ 33.7 µg/mL) | S. Typhimurium colonization of spleen and liver (tissue CFU) ([3]; C57Bl/6 mice, 50 mg/kg IP at 10 minutes and 24 hours post-inoculation, 48 hours, P<0.05 Mann-Whitney): reduced S. Typhimurium colonization in both tissues | survival and condition of infected treated mice ([3]; female, C57Bl/6, mouse, in vivo, ip, 50 mg/kg, 48 h): survived in good condition out to 48 hours | IC50 [4]: 6 ± 0.5 µM | killing of mid-log phase S. aureus [5]: bactericidal
